Source: patent publication US20050043315A1, “Aminopyrimidine compounds, processes for their preparation and pharmaceutical compositions containing them” (priority 2002, published 2005)

| Compound | melting point |
| --- | --- |
| CC(C)n1nc(-c2c(-c3ccccc3)nc(N)[nH]c2=S)ccc1=O [Example 141, 6-(2-amino-4-phenyl-6-thioxo-1,6-dihydro-5-pyrimidinyl)-2-isopropyl-3(2H)-pyridazinone] | 295 to 299 °C |
| CSc1nc(N)nc(-c2ccccc2)c1-c1ccc(=O)n(C)n1 [Example 142, 6-[2-Amino-4-(methylthio)-6-phenyl-5-pyrimidinyl]-2-methyl-3(2H)-pyridazinone] | 233 to 235 °C |
| Cn1nc(-c2c(-c3ccccc3)nc(N)nc2[S+](C)[O-])ccc1=O (stereo not drawn) [Example 143, 6-[2-amino-4-(methylsulfinyl)-6-phenyl-5-pyrimidinyl]-2-methyl-3(2H)-pyridazinone] | > 250 °C |
| Cn1nc(-c2c(NCc3ccccc3)nc(N)nc2-c2ccccc2)ccc1=O [Example 145, 6-[2-Amino-4-(benzylamino)-6-phenyl-5-pyrimidinyl]-2-methyl-3(2H)-pyridazinone] | > 250 °C |
| Cn1nc(-c2c(NCc3ccccn3)nc(N)nc2-c2ccccc2)ccc1=O [Example 146, 6-{2-amino-4-phenyl-6-[(2-pyridinylmethyl)amino]-5-pyrimidinyl}-2-methyl-3(2H)-pyridazinone] | 248 to 250 °C |
| Cn1nc(-c2c(Nc3ccccc3)nc(N)nc2-c2ccccc2)ccc1=O [Example 147, 6-(2-Amino-4-anilino-6-phenyl-5-pyrimidinyl)-2-methyl-3(2H)-pyridazinone] | 252 to 254 °C |

Next, values leading:

| melting point | Compound |
| --- | --- |
| 214 to 215 °C | CC(C)n1nc(-c2c(Sc3ccccc3)nc(N)nc2-c2ccccc2)ccc1=O [Example 138, 6-[2-Amino-4-phenyl-6-(phenylthio)-5-pyrimidinyl]-2-isopropyl-3(2H)-pyridazinone] |
| 291 to 295 °C | CC(C)n1nc(-c2c(-c3ccccc3)nc(N)[nH]c2=O)ccc1=O [Example 140, 6-(2-amino-6-oxo-4-phenyl-1,6-dihydro-5-pyrimidinyl)-2-isopropyl-3(2H)-pyridazinone] |
| 218 to 220 °C | COc1nc(N)nc(-c2ccccc2)c1-c1ccc(=O)n(C)n1 [Example 144, 6-(2-Amino-4-methoxy-6-phenyl-5-pyrimidinyl)-2-methyl-3(2H)-pyridazinone] |
| 232 to 234 °C | CSc1nc(N)nc(-c2ccc(F)cc2)c1-c1ccc(=O)n(C(C)C)n1 [Example 148, 6-[2-amino-4-(4-fluorophenyl)-6-(methylthio)-5-pyrimidinyl]-2-isopropyl-3(2H)-pyridazinone] |
| 207 to 209 °C | COc1nc(N)nc(-c2ccc(F)cc2)c1-c1ccc(=O)n(C(C)C)n1 [Example 149, 6-[2-amino-4-(4-fluorophenyl)-6-methoxy-5-pyrimidinyl]-2-isopropyl-3(2H)-pyridazinone] |
| 148 to 151 °C | COc1nc(N)nc(-c2ccc(S(C)(=O)=O)cc2)c1-c1ccc(=O)n(C(C)C)n1 [Example 150, 6-{2-amino-4-methoxy-6-[4-(methylsulfonyl)phenyl]-5-pyrimidinyl}-2-isopropyl-3(2H)-pyridazinone] |
| 238 to 240 °C | CC(C)n1nc(-c2c(-c3ccc(F)cc3)nc(N)nc2[S+](C)[O-])ccc1=O (stereo not drawn) [Example 151, 6-[2-amino-4-(4-fluorophenyl)-6-(methylsulfinyl)-5-pyrimidinyl]-2-isopropyl-3(2H)-pyridazinone] |
| 241 to 243 °C | CSc1nc(N)nc(-c2ccc(S(C)(=O)=O)cc2)c1-c1ccc(=O)n(C(C)C)n1 [Example 151, 6-[2-amino-4-[4-(methylsulfonyl)phenyl]-6-(methylthio)-5-pyrimidinyl]-2-isopropyl-3(2H)-pyridazinone] |
| 221 to 223 °C | CSc1nc(N)nc(-c2ccc([S+](C)[O-])cc2)c1-c1ccc(=O)n(C(C)C)n1 (stereo not drawn) [Example 152, 6-[2-amino-4-[4-(methylsulfinyl)phenyl]-6-(methylthio)-5-pyrimidinyl]-2-isopropyl-3(2H)-pyridazinone] |
